Assay results: patent US20220323406A1, “METHODS AND COMPOSITIONS FOR DIFFERENTIATING STEM CELLS” (Massachusetts Institute of Technology, priority 2019, published 2022)

What was measured:
[1] = system: ENR+CD organoids (ISC to Paneth cell differentiation); assay: Primary screen: CCh-stimulated lysozyme secretion LYZ.S, 2.5-D 384-well ENR+CD organoid differentiation; type: cell-based, mouse; details: primary screen
Excerpt: (§1) High-throughput screening.

[2] = system: ENR+CD organoids (ISC to Paneth cell differentiation); assay: Primary screen: basal (non-stimulated) lysozyme secretion LYZ.NS, 2.5-D 384-well ENR+CD organoid differentiation; type: cell-based, mouse
Excerpt: as §1

[3] = system: ENR+CD organoids; assay: Primary screen: ATP (CellTiter-Glo 3D, CTG) cell number/viability, 2.5-D 384-well ENR+CD organoids; details: primary screen; for Z.CTG: standard z score;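 as to all read-outs here: compounds given at plating and again on day 3 over a 6-day differentiation from ENR+CV stem-cell-enriched precursors, ATP measured on day 6, plate median as control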
[4] = dose 0.08 uM, FC relative to plate median
[5] = dose 0.40 uM, FC relative to plate median
[6] = dose 2.00 uM, FC relative to plate median
[7] = dose 10.00 uM, FC relative to plate median
[8] = primary screen, dose 0.08 uM, FC relative to plate median
[9] = primary screen, dose 0.08 uM, standard z score
[10] = primary screen, dose 0.40 uM, FC relative to plate median
[11] = primary screen, dose 0.40 uM, standard z score
[12] = primary screen, dose 2.00 uM, FC relative to plate median
[13] = primary screen, dose 2.00 uM, standard z score
[14] = primary screen, dose 10.00 uM, FC relative to plate median
[15] = primary screen, dose 10.00 uM, standard z score
[16] = dose 0.08 uM, FC vs plate median
[17] = dose 0.40 uM, FC vs plate median
[18] = dose 2.00 uM, FC vs plate median

Compound	Dose.FC.LYZ.S ([1]; dose 0.08 uM) [log2 fold change]	Dose.FC.LYZ.S ([1]; dose 0.40 uM) [log2 fold change]	Dose.FC.LYZ.S ([1]; dose 2.00 uM) [log2 fold change]	Dose.FC.LYZ.S ([1]; dose 10.00 uM) [log2 fold change]	Dose.FC.LYZ.NS ([2]; primary screen, dose 0.08 uM) [log2 fold change]	Z.LYZ.NS (standard z score) ([2]; primary screen, dose 0.08 uM)	Dose.FC.LYZ.NS ([2]; primary screen, dose 0.40 uM) [log2 fold change]	Z.LYZ.NS (standard z score) ([2]; primary screen, dose 0.40 uM)	Dose.FC.LYZ.NS ([2]; primary screen, dose 2.00 uM) [log2 fold change]	Z.LYZ.NS (standard z score) ([2]; primary screen, dose 2.00 uM)	Dose.FC.LYZ.NS ([2]; primary screen, dose 10.00 uM) [log2 fold change]	Z.LYZ.NS (standard z score) ([2]; primary screen, dose 10.00 uM)	Dose.FC.CTG ([3]; dose 0.08 uM) [log2 fold change]	Z.CTG (standard z score) ([3]; dose 0.08 uM)	Dose.FC.CTG ([3]; dose 0.40 uM) [log2 fold change]	Z.CTG (standard z score) ([3]; dose 0.40 uM)	Dose.FC.CTG ([3]; dose 2.00 uM) [log2 fold change]	Z.CTG (standard z score) ([3]; dose 2.00 uM)	Dose.FC.CTG ([3]; dose 10.00 uM) [log2 fold change]	Z.CTG (standard z score) ([3]; dose 10.00 uM)	also measured
Cc1cc([C@@H](C)Nc2ccccc2C(=O)O)c2nc(N3CCOCC3)cc(=O)n2c1 [AZD6482]	0.182	0.156	−0.114	−0.253	0.108	0.944	0.076	0.660	−0.130	−1.129	−0.248	−2.160	0.240	0.572	0.223	0.533	−0.509	−1.215	−1.203	−2.874	–
c1ccc(NCc2ccc(CNc3ccccn3)cc2)nc1 [WZ811]	0.296	0.007	0.074	0.019	0.154	1.337	0.019	0.162	0.094	0.815	0.005	0.045	0.140	0.334	−0.034	−0.082	0.077	0.184	0.044	0.104	–
CC(C)n1c(/C=C/C(O)CC(O)CC(=O)O)c(-c2ccc(F)cc2)c2ccccc21 (stereo not drawn) [Fluvastatin Sodium]	0.026	−0.177	−0.293	−0.267	0.112	–	−0.146	–	−0.203	–	−0.159	–	−0.161	–	−0.482	–	−1.111	–	−1.761	–	Z.LYZ.NS ([2]; primary screen, standard z score, dose 0.08 uM): 0.979; Z.LYZ.NS ([2]; primary screen, standard z score, dose 0.40 uM): −1.275; Z.LYZ.NS ([2]; primary screen, standard z score, dose 2.00 uM): −1.764; Z.LYZ.NS ([2]; primary screen, standard z score, dose 10.00 uM): −1.388
COc1cc(OC)c(/C=C/S(=O)(=O)Cc2ccc(OC)c(NCC(=O)O)c2)c(OC)c1 [Rigosertib (ON-01910)]	–	–	–	–	–	–	–	–	–	–	–	–	–	–	–	–	–	–	–	–	Dose.FC.LYZ.S [1, 4]: −0.309 log2 fold change; Dose.FC.LYZ.S [1, 5]: −0.355 log2 fold change; Dose.FC.LYZ.S [1, 6]: −0.340 log2 fold change; Dose.FC.LYZ.S [1, 7]: −0.330 log2 fold change; Dose.FC.LYZ.NS [2, 8]: −0.242 log2 fold change; Z.LYZ.NS [2, 9]: −2.105; Dose.FC.LYZ.NS [2, 10]: −0.210 log2 fold change; Z.LYZ.NS [2, 11]: −1.831; Dose.FC.LYZ.NS [2, 12]: −0.265 log2 fold change; Z.LYZ.NS [2, 13]: −2.306; Dose.FC.LYZ.NS [2, 14]: −0.242 log2 fold change; Z.LYZ.NS [2, 15]: −2.107; Dose.FC.CTG [3, 4]: −0.905 log2 fold change; Z.CTG ([3]; dose 0.08 uM): −2.162; Dose.FC.CTG [3, 5]: −1.285 log2 fold change; Z.CTG ([3]; dose 0.40 uM): −3.069; Dose.FC.CTG [3, 6]: −1.668 log2 fold change; Z.CTG ([3]; dose 2.00 uM): −3.984; Dose.FC.CTG [3, 7]: −0.847 log2 fold change; Z.CTG ([3]; dose 10.00 uM): −2.022
CCc1cc(Nc2nccc(-c3c(-c4ccc(OC)c(C(=O)Nc5c(F)cccc5F)c4)nc4ccccn34)n2)c(OC)cc1N1CCC(N2CCN(S(C)(=O)=O)CC2)CC1 [GSK1904529A]	–	–	–	–	–	0.890	–	0.977	–	−1.557	–	−1.419	–	0.484	–	−0.170	–	−1.361	–	−1.649	Dose.FC.LYZ.S (log2 fold change) ([1]; dose 0.08 uM): 0.133; Dose.FC.LYZ.S (log2 fold change) ([1]; dose 0.40 uM): −0.047; Dose.FC.LYZ.S (log2 fold change) ([1]; dose 2.00 uM): −0.225; Dose.FC.LYZ.S (log2 fold change) ([1]; dose 10.00 uM): −0.276; Dose.FC.LYZ.NS (log2 fold change) ([2]; primary screen, dose 0.08 uM): 0.102; Dose.FC.LYZ.NS (log2 fold change) ([2]; primary screen, dose 0.40 uM): 0.112; Dose.FC.LYZ.NS (log2 fold change) ([2]; primary screen, dose 2.00 uM): −0.179; Dose.FC.LYZ.NS (log2 fold change) ([2]; primary screen, dose 10.00 uM): −0.163; Dose.FC.CTG (log2 fold change) ([3]; dose 0.08 uM): 0.202; Dose.FC.CTG (log2 fold change) ([3]; dose 0.40 uM): −0.071; Dose.FC.CTG (log2 fold change) ([3]; dose 2.00 uM): −0.570; Dose.FC.CTG (log2 fold change) ([3]; dose 10.00 uM): −0.691
CC(C)(C)n1nc(-c2ccc(Cl)cc2)c2c(N)ncnc21 [PP2]	–	–	–	–	–	–	–	–	–	–	–	–	–	–	–	–	–	–	–	–	Dose.FC.LYZ.S [1, 7]: 0.027 log2 fold change; Dose.FC.LYZ.S [1, 16]: 0.058 log2 fold change; Dose.FC.LYZ.S [1, 17]: 0.145 log2 fold change; Dose.FC.LYZ.S [1, 18]: 0.113 log2 fold change; Z.LYZ.NS [2, 9]: 0.285; Z.LYZ.NS [2, 11]: 0.104; Z.LYZ.NS [2, 13]: 2.354; Dose.FC.LYZ.NS [2, 14]: −0.027 log2 fold change; Z.LYZ.NS [2, 15]: −0.235; Dose.FC.LYZ.NS ([2]; primary screen; dose 0.08 uM; FC vs plate median): 0.033 log2 fold change; Dose.FC.LYZ.NS ([2]; primary screen; dose 0.40 uM; FC vs plate median): 0.012 log2 fold change; Dose.FC.LYZ.NS ([2]; primary screen; dose 2.00 uM; FC vs plate median): 0.270 log2 fold change; Z.CTG ([3]; dose 0.08 uM): −1.655; Z.CTG ([3]; dose 0.40 uM): 0.312; Z.CTG ([3]; dose 2.00 uM): −0.913; Dose.FC.CTG [3, 7]: −0.246 log2 fold change; Z.CTG ([3]; dose 10.00 uM): −0.587; Dose.FC.CTG [3, 16]: −0.693 log2 fold change; Dose.FC.CTG [3, 17]: 0.130 log2 fold change; Dose.FC.CTG [3, 18]: −0.382 log2 fold change
Nc1ccc(C(=O)[O-])c(O)c1.[Na+] [Sodium 4-Aminosalicylate]	–	–	–	–	–	–	–	–	–	–	–	–	–	–	–	–	–	–	–	–	Dose.FC.LYZ.S [1, 4]: 0.162 log2 fold change; Dose.FC.LYZ.S [1, 5]: 0.050 log2 fold change; Dose.FC.LYZ.S [1, 6]: 0.099 log2 fold change; Dose.FC.LYZ.S [1, 7]: 0.143 log2 fold change; Dose.FC.LYZ.NS [2, 8]: 0.080 log2 fold change; Z.LYZ.NS [2, 9]: 0.695; Dose.FC.LYZ.NS [2, 10]: 0.041 log2 fold change; Z.LYZ.NS [2, 11]: 0.354; Dose.FC.LYZ.NS [2, 12]: 0.156 log2 fold change; Z.LYZ.NS [2, 13]: 1.354; Dose.FC.LYZ.NS [2, 14]: 0.091 log2 fold change; Z.LYZ.NS [2, 15]: 0.796; Dose.FC.CTG [3, 4]: 0.119 log2 fold change; Dose.FC.CTG [3, 5]: 0.204 log2 fold change; Dose.FC.CTG [3, 6]: 0.038 log2 fold change; Dose.FC.CTG [3, 7]: 0.247 log2 fold change
O=C(/C=C/c1ccccc1)NC(NC(=S)Nc1ccc(Cl)cc1)C(Cl)(Cl)Cl (stereo not drawn) [Sal003]	–	–	–	–	–	–	–	–	–	–	–	–	–	–	–	–	–	–	–	–	Dose.FC.LYZ.S [1, 4]: 0.092 log2 fold change; Dose.FC.LYZ.S [1, 5]: 0.067 log2 fold change; Dose.FC.LYZ.S [1, 6]: 0.040 log2 fold change; Dose.FC.LYZ.S [1, 7]: −0.408 log2 fold change; Dose.FC.LYZ.NS [2, 8]: 0.116 log2 fold change; Z.LYZ.NS [2, 9]: 1.013; Dose.FC.LYZ.NS [2, 10]: 0.183 log2 fold change; Z.LYZ.NS [2, 11]: 1.595; Dose.FC.LYZ.NS [2, 12]: 0.077 log2 fold change; Z.LYZ.NS [2, 13]: 0.670; Dose.FC.LYZ.NS [2, 14]: −0.246 log2 fold change; Z.LYZ.NS [2, 15]: −2.142; Dose.FC.CTG [3, 4]: 0.191 log2 fold change; Z.CTG ([3]; dose 0.08 uM): 0.456; Dose.FC.CTG [3, 5]: 0.155 log2 fold change; Z.CTG ([3]; dose 0.40 uM): 0.370; Dose.FC.CTG [3, 6]: 0.196 log2 fold change; Z.CTG ([3]; dose 2.00 uM): 0.468; Dose.FC.CTG [3, 7]: −0.829 log2 fold change; Z.CTG ([3]; dose 10.00 uM): −1.981
VU 0357121	0.152	0.034	0.007	−0.034	0.079	0.686	−0.010	−0.090	0.030	0.261	−0.027	−0.237	0.183	0.438	0.148	0.352	0.012	0.029	−0.059	−0.141	–
CN(C)C(=O)Nc1cccc(-c2ccc(N(C)C)cc2)c1 [Atglistatin]	0.028	−0.035	0.026	0.012	0.069	0.604	0.135	1.176	0.070	0.613	−0.016	−0.142	0.057	0.137	0.004	0.009	−0.045	−0.108	−0.431	−1.031	–
